Where a name gives a salt, the structure may show the parent alone.
System: cancer cell lines
Assay: Growth inhibitory effects on the panel of cancer cell lines
Format: cell-based
Conditions: drug 10 μM, 72 hours, WST-1
Source text: Subculture the different types of cancer cells.
For cell viability analysis, the cardiovascular drugs include peripheral vasodilator reaming enhancer, angiotensin converting agent inhibitor, hypotension and shock therapeutic agent, diuretic, antiarrhythmic agent, antiarralciton drug, antihypertensive agent, anticoagulant thrombolytic agent, cardiac tonic, intravenous (hemorrhoids) therapeutic agent, are used to test the inhibition effect of cancer cell.

O=C(NCCO[N+](=O)[O-])c1cccnc1 [Nicorandil (Ikorel), Nicorandil]
inhibition effect on different cancer cell lines (in words): significant inhibition effect

NCCc1c[nH]cn1.O=P(O)(O)O [Histamine Phosphate]
inhibition effect on different cancer cell lines (in words): significant inhibition effect

CC(C)NCC(O)COc1ccc(CCOCC2CC2)cc1 (centres unmarked) [Betaxolol hydrochloride (Betoptic), Betaxolol hydrochloride]
inhibition effect on different cancer cell lines (in words): significant inhibition effect

O=C(O[C@H]1CN2CCC1CC2)N1CCc2ccccc2[C@@H]1c1ccccc1 [Solifenacin succinate]
inhibition effect on different cancer cell lines (in words): significant inhibition effect

CCOC(=O)OC(C)OC1=C(C(=O)Nc2ccccn2)N(C)S(=O)(=O)c2ccccc21 (centres unmarked) [Ampiroxicam]
inhibition effect on different cancer cell lines (in words): significant inhibition effect

CS(=O)(=O)Nc1ccc([N+](=O)[O-])cc1Oc1ccccc1 [Nimesulide]
inhibition effect on different cancer cell lines (in words): significant inhibition effect

Cc1ccc(N(CC2=NCCN2)c2cccc(O)c2)cc1 [Phentolamine mesilate]
inhibition effect on different cancer cell lines (in words): significant inhibition effect

CC(C)C[C@H](NC(=O)[C@H](CCc1ccccc1)NC(=O)CN1CCOCC1)C(=O)N[C@@H](Cc1ccccc1)C(=O)N[C@@H](CC(C)C)C(=O)[C@@]1(C)CO1 [Carfilzomib (PR-171), Carfilzomib]
inhibition effect on different cancer cell lines (in words): significant inhibition effect

COc1ccccc1OCCNCC(O)COc1cccc2[nH]c3ccccc3c12 (centres unmarked) [Carvedilol]
inhibition effect on different cancer cell lines (in words): significant inhibition effect

CCOC(=O)C1=C[C@@H](OC(CC)CC)[C@H](NC(C)=O)[C@@H](N)C1 [Oseltamivir phosphate (Tamiflu), Oseltamivir phosphate]
inhibition effect on different cancer cell lines (in words): significant inhibition effect

C[C@H](Cc1cc2c(c(C(N)=O)c1)N(CCCO)CC2)NCCOc1ccccc1OCC(F)(F)F [Silodosin (Rapaflo), Silodosin]
inhibition effect on different cancer cell lines (in words): significant inhibition effect

CCCc1nc2c(C)cc(-c3nc4ccccc4n3C)cc2n1Cc1ccc(-c2ccccc2C(=O)O)cc1 [Telmisartan (Micardis), Telmisartan]
inhibition effect on different cancer cell lines (in words): significant inhibition effect

CN[C@@H]1[C@H](O)[C@H](NC)[C@H]2O[C@@]3(O)C(=O)C[C@@H](C)O[C@H]3O[C@@H]2[C@H]1O [Spectinomycin hydrochloride]
inhibition effect on different cancer cell lines (in words): significant inhibition effect

COc1ccc(CN2CCN(C(c3ccc(F)cc3)c3ccc(F)cc3)CC2)c(OC)c1OC [Lomerizine HCl]
inhibition effect on different cancer cell lines (in words): significant inhibition effect

CCOC(=O)C1=C(C)NC(C)=C(C(=O)OCC)C1c1ccccc1/C=C/C(=O)OC(C)(C)C [Lacidipine (Lacipil, Motens), Lacidipine]
inhibition effect on different cancer cell lines (in words): significant inhibition effect

CC1=NN(c2ccccc2)C(=O)C1 [Edaravone (MCI-186), Edaravone]
inhibition effect on different cancer cell lines (in words): significant inhibition effect

C=C[C@H]1C[N@@]2CC[C@H]1C[C@H]2[C@H](O)c1ccnc2ccc(OC)cc12 [Quinine hydrochloride dihydrate]
inhibition effect on different cancer cell lines (in words): significant inhibition effect

O=C(O)[C@H](CC(=O)N1C[C@H]2CCCC[C@H]2C1)Cc1ccccc1 [Mitiglinide calcium]
inhibition effect on different cancer cell lines (in words): significant inhibition effect

CCOC(=O)[C@H](CCc1ccccc1)N[C@@H](C)C(=O)N1CCC[C@H]1C(=O)O [Enalapril maleate (Vasotec), Enalapril maleate]
inhibition effect on different cancer cell lines (in words): significant inhibition effect

COc1cc2nc(N3CCN(C(=O)C4COc5ccccc5O4)CC3)nc(N)c2cc1OC (centres unmarked) [Doxazosin mesylate]
inhibition effect on different cancer cell lines (in words): significant inhibition effect

C[N+](C)(C)C[C@H](O)CC(=O)[O-] [L-carnitine (Levocarnitine), L-carnitine]
inhibition effect on different cancer cell lines (in words): significant inhibition effect

C=C1CC[C@H](O)C/C1=C/C=C1\CCC[C@]2(C)[C@@H]([C@H](C)CCCC(C)C)CC[C@@H]12 [Vitamin D3 (Cholecalciferol), Cholecalciferol]
inhibition effect on different cancer cell lines (in words): significant inhibition effect

NS(=O)(=O)c1cc2c(cc1C(F)(F)F)NC(Cc1ccccc1)NS2(=O)=O (centres unmarked) [Bendroflumethiazide]
inhibition effect on different cancer cell lines (in words): significant inhibition effect

N=C(N)NC(=O)c1nc(Cl)c(N)nc1N [Amiloride hydrochloride dihydrate]
inhibition effect on different cancer cell lines (in words): significant inhibition effect

CCOC(=O)[C@H](CCc1ccccc1)N[C@H]1CCCN2CCC[C@@H](C(=O)O)N2C1=O [Cilazapril monohydrate (Inhibace), Cilazapril monohydrate]
inhibition effect on different cancer cell lines (in words): significant inhibition effect

Nc1ccn([C@@H]2O[C@H](CO)[C@@H](O)[C@H]2O)c(=O)n1 [Cytidine]
inhibition effect on different cancer cell lines (in words): significant inhibition effect

O=c1c(-c2ccc(O)cc2)coc2cc(O)ccc12 [Daidzein]
inhibition effect on different cancer cell lines (in words): significant inhibition effect

CCCCC(=O)N(Cc1ccc(-c2ccccc2-c2nnn[nH]2)cc1)[C@H](C(=O)O)C(C)C [Valsartan (Diovan), Valsartan]
inhibition effect on different cancer cell lines (in words): significant inhibition effect

CCCC(=O)OCOC(=O)C1=C(C)NC(C)=C(C(=O)OC)C1c1cccc(Cl)c1Cl (centres unmarked) [Cleviprex (Clevidipine), Clevidipine]
inhibition effect on different cancer cell lines (in words): significant inhibition effect

C=CCOc1ccccc1OCC(O)CNC(C)C (centres unmarked) [Oxprenolol HCl]
inhibition effect on different cancer cell lines (in words): significant inhibition effect

Cc1c(O)c(=O)ccn1C [Deferiprone]
inhibition effect on different cancer cell lines (in words): significant inhibition effect

CC(C)NCC(O)COc1cccc2ccccc12 (centres unmarked) [Propranolol HCl]
inhibition effect on different cancer cell lines (in words): significant inhibition effect

CCNC(=O)CCC/C=C\C[C@@H]1[C@@H](/C=C/[C@@H](O)CCc2ccccc2)[C@H](O)C[C@@H]1O [Bimatoprost]
inhibition effect on different cancer cell lines (in words): significant inhibition effect

COC(=O)[C@H](c1ccccc1Cl)N1CCc2sccc2C1 [Clopidogrel (Plavix), Clopidogrel]
inhibition effect on different cancer cell lines (in words): significant inhibition effect

COc1ccc(C2C(=O)c3ccccc3C2=O)cc1 [Anisindione]
inhibition effect on different cancer cell lines (in words): significant inhibition effect

CCCCc1oc2ccccc2c1C(=O)c1cc(I)c(OCCN(CC)CC)c(I)c1 [Amiodarone HCl]
inhibition effect on different cancer cell lines (in words): significant inhibition effect

CC(C)NCC(O)COc1cccc2[nH]ccc12 (centres unmarked) [Pindolol]
inhibition effect on different cancer cell lines (in words): significant inhibition effect

Cc1cn([C@H]2C[C@H](N=[N+]=[N-])[C@@H](CO)O2)c(=O)[nH]c1=O [Zidovudine (Retrovir), Zidovudine]
inhibition effect on different cancer cell lines (in words): significant inhibition effect

Nc1ccc(/N=N/c2ccccc2)c(N)n1 [Phenazopyridine HCl]
inhibition effect on different cancer cell lines (in words): significant inhibition effect

NS(=O)(=O)c1cc2c(cc1Cl)N=CNS2(=O)=O [Chlorothiazide]
inhibition effect on different cancer cell lines (in words): significant inhibition effect

O=S(=O)(O)c1cc(O)ccc1O [Ethamsylate]
inhibition effect on different cancer cell lines (in words): significant inhibition effect

C[C@H](N[C@@H](CCc1ccccc1)C(=O)O)C(=O)N1CCC[C@H]1C(=O)O.O.O [Enalaprilat dehydrate]
inhibition effect on different cancer cell lines (in words): significant inhibition effect

CCCCC1=NC2(CCCC2)C(=O)N1Cc1ccc(-c2ccccc2-c2nnn[nH]2)cc1 [Irbesartan (Avapro), Irbesartan]
inhibition effect on different cancer cell lines (in words): significant inhibition effect

CCOc1nc2cccc(C(=O)OCc3oc(=O)oc3C)c2n1Cc1ccc(-c2ccccc2-c2noc(=O)[nH]2)cc1 [Azilsartan Medoxomil (TAK-491), Azilsartan Medoxomil]
inhibition effect on different cancer cell lines (in words): significant inhibition effect

CN(CCOc1ccc(NS(C)(=O)=O)cc1)CCc1ccc(NS(C)(=O)=O)cc1 [Dofetilide (Tikosyn), Dofetilide]
inhibition effect on different cancer cell lines (in words): significant inhibition effect

N[C@@H]1CCCCN(c2c(F)cc3c(=O)c(C(=O)O)cn(C4CC4)c3c2Cl)C1 [Besifloxacin HCl (Besivance), Besifloxacin HCl]
inhibition effect on different cancer cell lines (in words): significant inhibition effect

COc1ccc(-n2nc(C(N)=O)c3c2C(=O)N(c2ccc(N4CCCCC4=O)cc2)CC3)cc1 [Apixaban]
inhibition effect on different cancer cell lines (in words): significant inhibition effect

CCOC(=O)[C@H](CCc1ccccc1)N[C@@H](C)C(=O)N1C(=O)N(C)C[C@H]1C(=O)O [Imidapril (Tanatril) HCl, Imidapril HCl]
inhibition effect on different cancer cell lines (in words): significant inhibition effect

NC(N)=Nc1nc(CSCCC(N)=NS(N)(=O)=O)cs1 [Famotidine (Pepcid), Famotidine]
inhibition effect on different cancer cell lines (in words): significant inhibition effect

CN(Cc1cc(Br)cc(Br)c1N)C1CCCCC1 [Bromhexine HCl]
inhibition effect on different cancer cell lines (in words): significant inhibition effect

COc1ccccc1OCC(O)CN1CCN(CC(=O)Nc2c(C)cccc2C)CC1 (centres unmarked) [Ranolazine dihydrochloride]
inhibition effect on different cancer cell lines (in words): significant inhibition effect

CCC(CC)[C@H](NC(C)=O)[C@@H]1[C@H](O)[C@@H](C(=O)O)C[C@H]1N=C(N)N.O.O.O [Peramivir Trihydrate]
inhibition effect on different cancer cell lines (in words): significant inhibition effect

CS(=O)(=O)c1ccc([C@@H](O)[C@@H](CO)NC(=O)C(Cl)Cl)cc1 [Thiamphenicol (Thiophenicol), Thiamphenicol]
inhibition effect on different cancer cell lines (in words): significant inhibition effect
